Data on three compounds can be found in ChEMBL document CHEMBL1201862, “PubChem BioAssay data set” (2004).

A word on the IC50: it is the concentration that inhibits the measured activity by half.

Calls of active or inactive are those of the source. No stated cut-off is given here; in the data, actives have a measured IC50 and inactives only a lower limit.

Sequence of Envelope glycoprotein gp160 (Q6QLK5 whole entry, the tested form may be a part): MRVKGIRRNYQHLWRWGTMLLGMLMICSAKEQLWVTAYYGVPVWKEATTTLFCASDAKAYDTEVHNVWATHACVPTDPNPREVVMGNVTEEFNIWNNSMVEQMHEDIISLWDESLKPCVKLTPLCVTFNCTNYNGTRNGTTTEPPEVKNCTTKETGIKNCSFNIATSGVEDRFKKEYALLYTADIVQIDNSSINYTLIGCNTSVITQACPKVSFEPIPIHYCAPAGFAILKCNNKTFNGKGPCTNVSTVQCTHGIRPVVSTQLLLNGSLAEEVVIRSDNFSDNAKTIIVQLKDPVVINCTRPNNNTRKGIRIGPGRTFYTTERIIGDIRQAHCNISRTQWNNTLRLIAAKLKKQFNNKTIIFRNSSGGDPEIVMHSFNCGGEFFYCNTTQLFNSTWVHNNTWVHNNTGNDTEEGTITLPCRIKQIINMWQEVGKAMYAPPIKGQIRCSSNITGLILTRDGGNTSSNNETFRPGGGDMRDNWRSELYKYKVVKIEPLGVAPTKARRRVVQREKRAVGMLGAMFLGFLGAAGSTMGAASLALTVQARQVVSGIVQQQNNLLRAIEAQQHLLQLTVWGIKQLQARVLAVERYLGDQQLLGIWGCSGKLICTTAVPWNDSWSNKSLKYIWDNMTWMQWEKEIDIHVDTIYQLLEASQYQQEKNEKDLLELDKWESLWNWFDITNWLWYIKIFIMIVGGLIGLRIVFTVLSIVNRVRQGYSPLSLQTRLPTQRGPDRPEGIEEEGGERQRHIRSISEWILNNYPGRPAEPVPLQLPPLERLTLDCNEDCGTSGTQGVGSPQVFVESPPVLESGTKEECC

The experiment has as its target Envelope glycoprotein gp160 (Human immunodeficiency virus 1, UniProt Q6QLK5). The experiment is described as follows: cell-free HIV fusion peptide-binding blockers – biochemical, uHTS, fluorescence dequenching, […] (AID 1986).
As for `O=C(O)Cn1cc(/C=c2/sc3nc4ccccc4n3c2=O)c2ccccc21`, the half-maximal inhibitory concentration (IC50) was 68.9 µM (active). Consider `O=C1NN(c2ccc(F)c(Cl)c2)C(=O)/C1=C\c1cccc(OC(=O)c2cccs2)c1`, for which the half-inhibitory concentration (IC50) is 7.72 µM (active).

`CSc1nc(SCC(=O)O)c2sc3nc(-c4ccccc4)c4c(c3c2n1)CCC4`: the half-inhibitory concentration (IC50) is 16.2 µM (active).
